Reference: US8039430B2 (University of Wollongong, priority 2005, dated 2011)
Converted amounts (≈) assume the structure as drawn. Counter-ions that a name gives are not always drawn. Like-named read-outs stand apart in the source and are kept apart here.

Legend:
[1] = test system: #243 E. faecium van B ST17; test: Antibacterial assay (MIC), VRE strain #243, Enterococossel Broth, Example 1; format: cell-based, Enterococcus faecium; details: for MIC: Enterococcus faecium, read-out: 243 (minimum inhibitory concentration)
Method: (§1) Antibacterial Assay Method for Staphylococcus aureus (ATCC 6538P) and Enterococcus faecium
(§2) VRE strains: #243 E. faecium van B ST17 #449 E. faecium van B ST17
(§3) Compounds are accurately weighed out (between approx. 1-2 mg) and dissolved in either 10% methanol/water (v/v) or 100% DMSO to a final stock concentration of 5 mg/ml.
(§4) Compounds are then diluted 1/10 in H2O to a test conc of 500 ug/ml ready for immediate use, or storage at −20° C.
(§5) Grow up an o/n starter culture of Staphylococcus aureus and each VRE strain by diluting previous culture (stored at 4° C.) 1/1000 into −50 mls Luria Broth (LB) for S. aureus or Enterococossel Broth (EB) for the VRE strains.
(§6) Incubate o/n at 37° C.+shaking. • A glycerol stock (0.6 mls bacterial culture, 0.3 mls glycerol) of each strain is kept at −80° C. if needed. Assay Set Up:
(§7) In a 96well round bottom plate add 50 ul LB/well for the S. aureus plate and add 50 ul EB/well for the VRE plates.
(§8) Add 50 ul of compound dilution (500 ug/ml test conc) to each of three top row wells (ie: tested in triplicate) and dilute 1 in 2 from the top row to the bottom row.
(§9) After the compound dilution, add to each well 50 ul of a 1/1000 dilution of the appropriate overnight bacterial culture, either S. aureus or the different VRE strains.
(§10) Plates are incubated at 37° C. on a slowly rotating plate incubator. • test concentrations are (in ug/ml) 125, 62.5, 31.25, 15.6, 7.8, 3.9, 1.9, 0.98 • final DMSO concentration in the first row of wells of the assay is 2.5% • Vancomycin is included in the assay (in triplicate) at a starting test concentration of 5 ug/ml for S. aureus and 125 ug/ml for the VRE strains Reading Results of Assay:
(§11) After incubation for 24 hrs the plates are removed and read. Inhibition of bacterial growth is indicated by lack of bacterial pellet or a clear well. In the VRE plates bacterial growth is indicated by black coloured media (EB) as well as a bacterial pellet.
(§12) Untreated control wells are included in the assay to check they all contain bacterial pellets. Uninoculated untreated control wells are included to check they all contain clear medium.
(§13) The plates are analysed for MIC and the results tabulated.

[2] = test system: #449 E. faecium van B ST17; test: Antibacterial assay (MIC), VRE strain #449, Enterococossel Broth, Example 1; format: cell-based, Enterococcus faecium; details: for MIC: Enterococcus faecium, read-out: 449 (minimum inhibitory concentration)
Method: as §1, §2, §3, §4, §5, §6, §7, §8, §9, §10, §11, §12, §13

[3] = test system: #987 E. faecium van B ST39; test: Antibacterial assay (MIC), VRE strain #987, Enterococossel Broth, Example 1; format: cell-based, Enterococcus faecium; details: for MIC: Enterococcus faecium, read-out: 987 (minimum inhibitory concentration)
Method: as §1
(§14) #820 E. faecium van A ST17 #987 E. faecium van B ST39
as §3, §4, §5, §6, §7, §8, §9, §10, §11, §12, §13

[4] = test system: Staphylococcus aureus (ATCC 6538P); test: Antibacterial assay (MIC), Staphylococcus aureus ATCC 6538P, Luria Broth, Example 1; format: cell-based; details: for MIC: Staphylococcus aureus, ATCC6538P, read-out: Sa (minimum inhibitory concentration)
Method: as §1
Staphylococcus aureus (ATCC 6538P)
as §3, §4, §5, §6, §7, §8, §9, §10, §11, §12, §13

[5] = test system: #820 E. faecium van A ST17; test: Antibacterial assay (MIC), VRE strain #820, Enterococossel Broth, Example 1; format: cell-based, Enterococcus faecium; details: for MIC: Enterococcus faecium, read-out: 820 (minimum inhibitory concentration)
Method: as §1, §14, §3, §4, §5, §6, §7, §8, §9, §10, §11, §12, §13

[6] = test system: Staphylococcus aureus strain ATCC 6538P; test: Antibacterial screening (MIC) of compounds of Example 2, S. aureus, Mueller-Hinton broth; format: cell-based; details: Staphylococcus aureus, ATCC6538P, 18 h, read-out: Antibacterial activity (MIC μg/mL)
Method: Antibacterial Screening Methodology for Compounds of Example 2
• All assays used the Staphylococcus aureus strain ATCC 6538P. • Assays described in Chapter 5 additionally used the vancomycin-resistant enterococci and vancomycin-sensitive enterococci strains Ef243, Ef449, Ef820 and Ef487. Culture Media • Mueller-Hinton Broth Medium (MHB): MHB (Oxoid CM405) was prepared with final concentrations of […] MgCl2 and 2 μg/mL CaCl2. Culture medium was pre-warmed for approximately 2-3 h at 37° C. before use. • Mueller-Hinton Agar Medium (MHA): MMB containing 1.5% Agar (Merck Agar 1.01614). Maintenance of Bacteria • From a thawed cryovial, the bacteria was streaked onto MHA and the plate incubated overnight at 37° C. • From this plate, 10 cryovials were prepared by looping several colonies into 0.5 mL of 20% glycerol solution. The cryovials were immediately stored at −140° C. Preparation of Seed Cultures • A cryovial was removed from −140° C. storage and thawed at room temperature. • An MHA plate was streaked with a loopful of bacterial suspension and incubated overnight at 37° C. to create a parent plate (P1). • A daughter plate (D1) was streaked from the parent plate and incubated overnight at 37° C. […] The second parent plate (P2) was used to generate two additional daughter plates using the procedure outlined above before being discarded. • Cryovials were used twice to prepare parent plates (P1 and P2) before being discarded. […] A vancomycin control set (triplicate) and a compound negative control set (triplicate) were also included on each plate (FIG. 1). • The inoculated culture medium was incubated at 37° C. for 30 min, with shaking at 130 rpm. • Using a multichannel pipette, the contents of the first row were mixed before 50 μL was transferred to the second row. The pipette tips were changed and the process repeated by 50 μL of the mixed broth solutions in the second row being transferred to the third row. This process was repeated until the last row contained either the diluted test compound or a control (vancomycin or compound-negative). […] Antibacterial Testing of Compounds of Example 2 Introduction
The specific testing procedures and protocols are outlined in the section “Antibacterial Screening Methodology for the Compounds of Example 2”.
The antibacterial activity results are measured by minimum inhibitory concentration (MIC), which is the lowest concentration of compound necessary to prevent bacterial growth.

[7] = Example 1 compounds, VRE #243 E. faecium van B, 24 hrs, 37° C.
[8] = Example 1 compounds, VRE #449 E. faecium van B, 24 hrs, 37° C.
[9] = Example 1 compounds, VRE #987 E. faecium van B, 24 hrs, 37° C.
[10] = Example 1 compounds, S. aureus ATCC 6538P, 24 hrs, 37° C., range if at least two of three values fell within it
[11] = Example 1 compounds, VRE #820 E. faecium van A, 24 hrs, 37° C.
[12] = Example 2 compounds, S. aureus, 37° C.

C=CCOc1ccc2ccccc2c1-c1c(OCC(=O)N[C@H](CCCNC(=N)N)C(=O)Nc2cccc(C(=O)OC)c2)ccc2ccccc12.Cl (atropisomer, axis not shown) [Compound 44]
MIC [1, 7]: > 62.6 µg/mL
MIC [2, 8]: > 62.6 µg/mL
MIC [3, 9]: > 62.6 µg/mL
MIC [4, 10]: 0.99 to 15.6 µg/mL
MIC [5, 11]: 15.7 to 62.5 µg/mL

C=CCOc1ccc2ccccc2c1-c1c(OCC(=O)N[C@H](CCCNC(=N)N)C(=O)Nc2cccc(C(=O)OCc3ccccc3)c2)ccc2ccccc12.Cl (atropisomer, axis not shown) [Compound 45]
MIC [1, 7]: 15.7 to 62.5 µg/mL
MIC [2, 8]: 15.7 to 62.5 µg/mL
MIC [3, 9]: 15.7 to 62.5 µg/mL
MIC [4, 10]: 0.99 to 15.6 µg/mL
MIC [5, 11]: 15.7 to 62.5 µg/mL

C=CCOc1ccc2ccccc2c1-c1c(OCC(=O)N[C@H](CCCNC(=N)N)C(=O)Nc2cccc(C(=O)NOCc3ccccc3)c2)ccc2ccccc12.Cl (atropisomer, axis not shown) [Compound 46]
MIC [1, 7]: > 62.6 µg/mL
MIC [2, 8]: > 62.6 µg/mL
MIC [3, 9]: > 62.6 µg/mL
MIC [4, 10]: 0.99 to 15.6 µg/mL
MIC [5, 11]: > 62.6 µg/mL

CCC(C)[C@H](NC(=O)[C@@H](CCCNC(=N)N)NC(=O)[C@@H](CCCCN)NC(=O)COc1ccc2ccccc2c1-c1c(OCCC(C)C)ccc2ccccc12)C(=O)OCc1ccccc1.Cl.Cl (some centres unmarked) [Compound 3]
MIC [1, 7]: 15.7 to 62.5 µg/mL
MIC [2, 8]: 15.7 to 62.5 µg/mL
MIC [3, 9]: 15.7 to 62.5 µg/mL
MIC [4, 10]: 0.99 to 15.6 µg/mL
MIC [5, 11]: 15.7 to 62.5 µg/mL

CC(C)CCOc1ccccc1-c1ccccc1OCC(=O)N[C@H](CCCCN)C(=O)N[C@H](CCCNC(=N)N)C(=O)N[C@@H](CC(C)C)C(=O)OCc1ccccc1.Cl.Cl [Compound 11]
MIC [1, 7]: 15.7 to 62.5 µg/mL
MIC [2, 8]: 15.7 to 62.5 µg/mL
MIC [3, 9]: 15.7 to 62.5 µg/mL
MIC [4, 10]: 0.99 to 15.6 µg/mL
MIC [5, 11]: 15.7 to 62.5 µg/mL

COC(=O)[C@@H]1CC=CCOc2ccc(cc2)C[C@H](NC(C)=O)C(=O)N[C@H](CCCCN)C(=O)N1 [Compound 12, (7S,10R,13S,4E/Z)-13-Acetamido-10-(4-aminobutyl)-8,11-diaza-7-methoxycarbonyl-2-oxa-9,12-dioxo-1(1,4)phenylenacyclotetradecaphane-4-ene hydrochloride]
MIC [6]: 62.5 µg/mL

C=CC[C@H](NC(=O)[C@@H](CCCNC(=N)N)NC(=O)[C@@H](CCCCN)NC(=O)COc1ccc2ccccc2c1-c1c(OCC(C)(C)C)ccc2ccccc12)C(=O)OCc1ccccc1 [Compound 27]
MIC [1, 7]: 15.7 to 62.5 µg/mL (≈ 17.7 to 70.5 µM)
MIC [2, 8]: 15.7 to 62.5 µg/mL (≈ 17.7 to 70.5 µM)
MIC [3, 9]: > 62.6 µg/mL
MIC [4, 10]: 0.99 to 15.6 µg/mL (≈ 1.12 to 17.6 µM)
MIC [5, 11]: 15.7 to 62.5 µg/mL (≈ 17.7 to 70.5 µM)

NCCCC[C@@H](NC(=O)CCCOc1ccc2ccccc2c1-c1c(OCCCC(=O)N[C@H](CCCCN)C(=O)OCc2ccccn2)ccc2ccccc12)C(=O)OCc1ccccn1 [Compound 36]
MIC ([1]; VRE, 24 h): > 62.6 µg/mL
MIC ([2]; VRE, 24 h): > 62.6 µg/mL
MIC ([3]; VRE, 24 h): > 62.6 µg/mL
MIC ([4]; 24 h): > 62.6 µg/mL
MIC ([5]; VRE, 24 h): > 62.6 µg/mL

N=C(N)NCCC[C@@H](NC(=O)CCCOc1ccc2ccccc2c1-c1c(OCCCC(=O)N[C@H](CCCNC(=N)N)C(=O)OCc2ccccn2)ccc2ccccc12)C(=O)OCc1ccccn1 [Compound 37]
MIC [1, 7]: > 62.6 µg/mL
MIC [2, 8]: > 62.6 µg/mL
MIC [3, 9]: > 62.6 µg/mL
MIC [4, 10]: 0.99 to 15.6 µg/mL (≈ 1.04 to 16.4 µM)
MIC [5, 11]: > 62.6 µg/mL

C=CCOc1ccc2ccccc2c1-c1c(OCC(=O)N[C@H](CCCN)C(=O)Nc2cccc(C(=O)NOCc3ccccc3)c2)ccc2ccccc12 [Compound 43]
MIC [1, 7]: > 62.6 µg/mL
MIC [2, 8]: > 62.6 µg/mL
MIC [3, 9]: > 62.6 µg/mL
MIC [4, 10]: 0.99 to 15.6 µg/mL (≈ 1.37 to 21.6 µM)
MIC [5, 11]: 15.7 to 62.5 µg/mL (≈ 21.7 to 86.5 µM)

COC(=O)[C@H]1CC=CCOc2ccc(cc2)C[C@H](NC(C)=O)C(=O)N[C@@H](CCCN=C(N)NS(=O)(=O)c2c(C)c(C)c3c(c2C)CCC(C)(C)O3)C(=O)N1 [Compound 47]
243 (minimum inhibitory concentration) [1, 7]: + (MIC of the compound in the range of greater than or equal to 62.6 (μg/ml))
449 (minimum inhibitory concentration) [2, 8]: + (MIC of the compound in the range of greater than or equal to 62.6 (μg/ml))
987 (minimum inhibitory concentration) [3, 9]: + (MIC of the compound in the range of greater than or equal to 62.6 (μg/ml))
Sa (minimum inhibitory concentration) [4, 10]: +++ (MIC of the compound in the range of greater than or equal to 0.99 (μg/ml) and less than or equal to 15.6 (μg/ml))
820 (minimum inhibitory concentration) [5, 11]: + (MIC of the compound in the range of greater than or equal to 62.6 (μg/ml))

COC(=O)[C@@H]1CC=CCOc2ccc(cc2)C[C@@H](NC(C)=O)C(=O)N[C@@H](CCCNC(=N)N)C(=O)N1.Cl [Compound 56, (7S,10S,13R,4E/Z)-13-Acetamido-8,11-diaza-10-(3-[amino{imino}methylamino]propyl)-7-methoxycarbonyl-2-oxa-9,12-dioxo-1(1,4)phenylenacyclotetradecaphane-4-ene]
MIC [6, 12]: 125 µg/mL

COC(=O)[C@@H]1Cc2ccc(cc2)OCC=CCOc2ccc(cc2)C[C@H](NC(C)=O)C(=O)N[C@H](CCCCN)C(=O)N1.Cl [Compound 65, (10S,13R,16S,4E/Z)-16-Acetamido-13-(4-aminobutyl)-11,14-diaza-10-methoxycarbonyl-2,7-dioxa-12,15-dioxo-1(1,4),8(4,1)-diphenylenecycloheptadecaphane-4-ene]
MIC [6, 12]: 15.6 µg/mL
